From patent US11498899B2, “Nitrone herbicides” (FMC Corporation, priority 2016, dated 2022)

Tests used:
[1] = test system: barnyardgrass (Echinochloa crus-galli); assay: Test B flooded paddy test, visual rating 0-100; details: Flood, 250 g ai/ha, applied to paddy water, rated after 13 to 15 days
kochia (Kochia scoparia) [2] = assay: Test A postemergence, visual injury rating 0-100; assay type: in vivo; details: 0 to 100 scale
From the text: (§1) Seeds of plant species selected from barnyardgrass (Echinochloa crus-galli), kochia (Kochia scoparia), ragweed (common ragweed, Ambrosia elatior), ryegrass, Italian (Italian ryegrass, Lolium multiflorum), foxtail, giant (giant foxtail, Setaria faberii), foxtail, green (green foxtail, Setaria viridis), and pigweed (Amaranthus retroflexus) were planted into a blend of loam soil and sand and treated preemergence with a directed soil spray using test chemicals formulated in a non-phytotoxic solvent mixture which included a surfactant.
(§2) At the same time, plants selected from these weed species and also wheat (Triticum aestivum), corn (Zea mays), blackgrass (Alopecurus myosuroides), and galium (catchweed bedstraw, Galium aparine) were planted in pots containing the same blend of loam soil and sand and treated with postemergence applications of test chemicals formulated in the same manner. Plants ranged in height from 2 to 10 cm and were in the one- to two-leaf stage for the postemergence treatment. Treated plants and untreated controls were maintained in a greenhouse for approximately 10 days, after which time all treated plants were compared to untreated controls and visually evaluated for injury. […] A dash (-) response means no test result.

[3] = test system: foxtail, giant (giant foxtail, Setaria faberii); assay: Test A postemergence, visual injury rating 0-100; assay type: in vivo; details: 0 to 100 scale
From the text: as §1, §2

[4] = test system: wheat (Triticum aestivum); assay: Test A postemergence, visual injury rating 0-100; assay type: in vivo; details: 0 to 100 scale
From the text: as §1, §2

[5] = test system: pigweed (Amaranthus retroflexus); assay: Test A postemergence, visual injury rating 0-100; assay type: in vivo; details: 0 to 100 scale
From the text: as §1, §2

corn (Zea mays) = assay: Test A postemergence, visual injury rating 0-100; assay type: in vivo; details: 0 to 100 scale
From the text: as §1, §2

[6] = test system: blackgrass (Alopecurus myosuroides); assay: Test A postemergence, visual injury rating 0-100; assay type: in vivo; details: 0 to 100 scale
From the text: as §1, §2

[7] = test system: galium (catchweed bedstraw, Galium aparine); assay: Test A postemergence, visual injury rating 0-100; assay type: in vivo; details: 0 to 100 scale
From the text: as §1, §2

[8] = test system: ragweed (common ragweed, Ambrosia elatior); assay: Test A postemergence, visual injury rating 0-100; assay type: in vivo; details: 0 to 100 scale
From the text: as §1, §2

[9] = test system: ryegrass, Italian (Italian ryegrass, Lolium multiflorum); assay: Test A postemergence, visual injury rating 0-100; assay type: in vivo; details: 0 to 100 scale
From the text: as §1, §2

[10] = test system: barnyardgrass (Echinochloa crus-galli); assay: Test A postemergence, visual injury rating 0-100; assay type: in vivo; details: 0 to 100 scale
From the text: as §1, §2

kochia (Kochia scoparia) [11] = assay: Test A preemergence, visual injury rating 0-100; assay type: in vivo
From the text: as §1, §2

[12] = test system: foxtail, giant (giant foxtail, Setaria faberii); assay: Test A preemergence, visual injury rating 0-100; assay type: in vivo
From the text: as §1, §2

[13] = test system: pigweed (Amaranthus retroflexus); assay: Test A preemergence, visual injury rating 0-100; assay type: in vivo
From the text: as §1, §2

[14] = test system: ragweed (common ragweed, Ambrosia elatior); assay: Test A preemergence, visual injury rating 0-100; assay type: in vivo
From the text: as §1, §2

[15] = test system: ryegrass, Italian (Italian ryegrass, Lolium multiflorum); assay: Test A preemergence, visual injury rating 0-100; assay type: in vivo
From the text: as §1, §2

[16] = test system: barnyardgrass (Echinochloa crus-galli); assay: Test A preemergence, visual injury rating 0-100 (0 no effect, 100 complete control); assay type: in vivo
From the text: as §1, §2

rice (Oryza sativa) = assay: Test B flooded paddy test, visual rating 0-100 (0 no effect, 100 complete control); details: Flood, 250 g ai/ha, applied to paddy water, rated after 13 to 15 days
[17] = test system: ducksalad (Heteranthera limosa); assay: Test B flooded paddy test, visual rating 0-100; details: Flood, 250 g ai/ha, applied to paddy water, rated after 13 to 15 days

CC1=[N+]([O-])C(C(=O)Nc2cccc(F)c2F)C(c2cccc(C3OCCO3)c2)C1 (racemic) [Compound 105]
Barnyardgrass plant response rating (0 to 100 scale) [1]: 0
Kochia plant response rating (kochia (Kochia scoparia) [2]; 125 g ai/ha): 0
Kochia plant response rating (kochia (Kochia scoparia) [2]; 500 g ai/ha): 0
Foxtail, Giant plant response rating ([3]; 125 g ai/ha): 10
Foxtail, Giant plant response rating ([3]; 500 g ai/ha): 30
Wheat plant response rating ([4]; 125 g ai/ha): 0
Wheat plant response rating ([4]; 500 g ai/ha): 30
Pigweed plant response rating ([5]; 125 g ai/ha): 0
Pigweed plant response rating ([5]; 500 g ai/ha): 0
Corn plant response rating (corn (Zea mays); 125 g ai/ha): 0
Corn plant response rating (corn (Zea mays); 500 g ai/ha): 40
Blackgrass plant response rating ([6]; 125 g ai/ha): 20
Blackgrass plant response rating ([6]; 500 g ai/ha): 60
Galium plant response rating ([7]; 125 g ai/ha): 30
Galium plant response rating ([7]; 500 g ai/ha): 40
Ragweed plant response rating ([8]; 125 g ai/ha): 0
Ragweed plant response rating ([8]; 500 g ai/ha): 40
Ryegrass, Italian plant response rating ([9]; 125 g ai/ha): 0
Ryegrass, Italian plant response rating ([9]; 500 g ai/ha): 40
Barnyardgrass plant response rating ([10]; 125 g ai/ha): 30
Barnyardgrass plant response rating ([10]; 500 g ai/ha): 80
Kochia plant response rating (0 to 100 scale) (kochia (Kochia scoparia) [11]; 125 g ai/ha): 0
Kochia plant response rating (0 to 100 scale) (kochia (Kochia scoparia) [11]; 500 g ai/ha): 60
Foxtail, Giant plant response rating (0 to 100 scale) ([12]; 125 g ai/ha): 60
Foxtail, Giant plant response rating (0 to 100 scale) ([12]; 500 g ai/ha): 90
Pigweed plant response rating (0 to 100 scale) ([13]; 125 g ai/ha): 0
Pigweed plant response rating (0 to 100 scale) ([13]; 500 g ai/ha): 0
Ragweed plant response rating (0 to 100 scale) ([14]; 125 g ai/ha): 0
Ragweed plant response rating (0 to 100 scale) ([14]; 500 g ai/ha): 0
Ryegrass, Italian plant response rating (0 to 100 scale) ([15]; 500 g ai/ha): 80
Barnyardgrass plant response rating (0 to 100 scale) ([16]; 125 g ai/ha): 30
Barnyardgrass plant response rating (0 to 100 scale) ([16]; 500 g ai/ha): 90
Rice plant response rating (0 to 100 scale) (rice (Oryza sativa)): 0
Ducksalad plant response rating (0 to 100 scale) [17]: 0

CC1=[N+]([O-])[C@@H](C(=O)Nc2cccc(F)c2F)[C@H](c2ccc(Cl)cc2)C1 (relative stereo) [Compound 5, trans-3-(4-chlorophenyl)-N-(2,3-difluorophenyl)-3,4-dihydro-5-methyl-2H-pyrrole-2-carboxamide 1-oxide]
Barnyardgrass plant response rating (0 to 100 scale) [1]: 65
Kochia plant response rating (kochia (Kochia scoparia) [2]; 125 g ai/ha): 60
Kochia plant response rating (kochia (Kochia scoparia) [2]; 500 g ai/ha): 70
Foxtail, Giant plant response rating ([3]; 125 g ai/ha): 60
Foxtail, Giant plant response rating ([3]; 500 g ai/ha): 70
Wheat plant response rating ([4]; 125 g ai/ha): 20
Wheat plant response rating ([4]; 500 g ai/ha): 80
Pigweed plant response rating ([5]; 125 g ai/ha): 40
Pigweed plant response rating ([5]; 500 g ai/ha): 70
Corn plant response rating (corn (Zea mays); 125 g ai/ha): 0
Corn plant response rating (corn (Zea mays); 500 g ai/ha): 50
Blackgrass plant response rating ([6]; 125 g ai/ha): 20
Blackgrass plant response rating ([6]; 500 g ai/ha): 50
Galium plant response rating ([7]; 125 g ai/ha): 50
Galium plant response rating ([7]; 500 g ai/ha): 80
Ragweed plant response rating ([8]; 125 g ai/ha): 30
Ragweed plant response rating ([8]; 500 g ai/ha): 70
Ryegrass, Italian plant response rating ([9]; 125 g ai/ha): 0
Ryegrass, Italian plant response rating ([9]; 500 g ai/ha): 30
Barnyardgrass plant response rating ([10]; 125 g ai/ha): 90
Barnyardgrass plant response rating ([10]; 500 g ai/ha): 90
Kochia plant response rating (0 to 100 scale) (kochia (Kochia scoparia) [11]; 125 g ai/ha): 10
Kochia plant response rating (kochia (Kochia scoparia) [11]; 500 g ai/ha, 0 to 100 scale): 60
Foxtail, Giant plant response rating (0 to 100 scale) ([12]; 125 g ai/ha): 100
Foxtail, Giant plant response rating ([12]; 500 g ai/ha, 0 to 100 scale): 100
Pigweed plant response rating (0 to 100 scale) ([13]; 125 g ai/ha): 50
Pigweed plant response rating ([13]; 500 g ai/ha, 0 to 100 scale): 90
Ragweed plant response rating (0 to 100 scale) ([14]; 125 g ai/ha): 50
Ragweed plant response rating ([14]; 500 g ai/ha, 0 to 100 scale): 90
Ryegrass, Italian plant response rating (0 to 100 scale) ([15]; 125 g ai/ha): 10
Ryegrass, Italian plant response rating ([15]; 500 g ai/ha, 0 to 100 scale): 80
Barnyardgrass plant response rating (0 to 100 scale) ([16]; 125 g ai/ha): 100
Barnyardgrass plant response rating ([16]; 500 g ai/ha, 0 to 100 scale): 100
Rice plant response rating (0 to 100 scale) (rice (Oryza sativa)): 0
Ducksalad plant response rating (0 to 100 scale) [17]: 100
